The source of these data is US9364555B2, “Pederin and psymberin agents” (priority 2011, dated 2016).

A word on the GI50: it is the concentration at which growth is held to half of that of the control.

Assay [1] relates to HCT116 colon cancer cells. The assay can be described thus: cell viability study, MTS assay with a three day incubation period. The class given is cell-based. Here is the method: The potency of the above-described compounds was measured in cell viability studies using HCT116 colon cancer cells with an MTS assay with a three day incubation period.
The second generation analogs were evaluated for their ability to inhibit HCT116 cell growth through the same protocol that was used to evaluate the initial set of compounds.
(Tetrazolium dyes change colour on reduction, which living cells bring about.)

In assay [2] the test system is p53 knockout variant of the HCT116 cell line. The assay can be described thus: test against p53 knockout variant of the HCT116 cell line. Type of assay: cell-based. The text has this:
The identity of the alkoxy group in the acyl aminal subunit appears to exert little influence over the biological activity, but the presence of the alkoxy group enhances potency by at least one order of magnitude (entries 1-4 vs. entry 5). […] This has also been observed in psymberin analogs that lack a substituent at that position (Huang et al., Org. Lett. 2009, 11, 867). […] The approximately one order of magnitude potency reduction of the des-methylene analog (entry 7), though consistent with results from the Nakata group, was somewhat surprising based on the minimal structural perturbation that this change effects on the hydrogen bond donors and acceptors in the molecule (Fukui et al., Bioorg. Med. Chem. Lett. 1997, 7, 2081).

The test system of assay [3] is HCT116 colon cancer cells. Conditions: literature value, read-out: GI50 value in the literature for this cell line; cited from earlier work.
Where [4] appears, read: HCT116 cell growth, same protocol as Table 1, Table 2, second generation analogs.
The mark [5] stands for this setting: HCT116 cells, MTS assay, three day incubation, Table 1, natural products and analogs.
The mark [6] stands for this setting: Homo sapiens, HCT-116, HCT116 cell growth, same protocol as Table 1, Table 2, second generation analogs.

Like-named read-outs stand apart in the source and are kept apart here.

With “4-desmethylene-10-desmethoxy 13-O-methylpederin [Compound 49]”, the GI50 in assay [1] (setting [4]) was found to be 79 ± 8 nM.

For the compound 8-desmethoxy psymberin [Compound 47], in assay [1] (setting [4]), halving of growth (GI50) required 0.83 ± 0.1 nM.

In assay [1] (setting [5]), 10-desmethoxy pederin [Compound 36e] returned a 50% growth inhibitory concentration (GI50) of 7.7 ± 0.24 nM.

With 10-desmethoxy pedestatin [Compound 48], it took 0.068 ± 0.02 nM to inhibit growth in assay [1] (setting [4]) by half (GI50).

As for “10-dimthoxybenzyloxy pederin [Compound 36d]”, it took 0.32 ± 0.09 nM to inhibit growth in assay [1] (setting [5]) by half (GI50).

Compound “10-trifluoroethoxy pederin [Compound 36c]” yielded a 50% growth inhibitory concentration (GI50) in assay [1] (setting [5]) of 0.55 ± 0.024 nM.

13-OTBS pederin showed a GI50 in assay [1] (setting [5]) of 3.1 ± 0.1 nM.

As to `C=C1C[C@](OC)([C@H](O)C(=O)N[C@@H](OC)[C@@H]2C[C@@H](O)C(C)(C)[C@@H](C[C@@H](COC)OC)O2)O[C@H](C)[C@@H]1C` [Compound 1, pederin], the GI50 in assay [1] (setting [5]) came to 0.6 ± 0.1 nM. Further, in assay [2], the “activity against p53 knockout variant of HCT116 compared with HCT116” value (shortened to “activity … compared with HCT116”) was “essentially identical activity”.

Turning to `C=C(C)CC(OC)[C@H](O)C(=O)N[C@@H](OC)[C@@H]1C[C@@H](O)C(C)(C)[C@@H](C[C@H](O)[C@@H](C)[C@H]2Cc3c(C)c(O)cc(O)c3C(=O)O2)O1` (stereo partly drawn) [Compound 2, psymberin], the concentration for 50% growth inhibition (GI50) was 0.052 ± 0.02 nM in assay [1] (setting [5]) and 0.16 nM in assay [3].

In turn, `C=C1CC(OC)(C(O)C(=O)NC(OCC)C2CC(O)C(C)(C)C(CC(COC)OC)O2)OC(C)C1C` (stereo not drawn) [Compound 36b, 10-ethoxy pederin] yielded a GI50 in assay [1] (setting [5]) of 0.34 ± 0.08 nM.

The compound `C=C1C[C@](OC)([C@H](O)C(=O)N/C=C2/C[C@@H](O)C(C)(C)[C@@H](C[C@@H](COC)OC)O2)O[C@H](C)[C@@H]1C` [Compound 37, pederin enamide] returned a GI50 in assay [1] (Homo sapiens, HCT-116, 72 h, HCT116 cells, MTS assay, three day incubation, Table 1, natural products and analogs) of 27 ± 0.88 nM. Besides, in assay [2], the “activity … compared with HCT116” value is on record as “essentially identical activity”.

Take `C=C1C[C@](OC)([C@H](O)C(=O)N[C@@H](OC)[C@@H]2C[C@@H](OC)C(C)(C)[C@@H](C[C@@H](COC)OC)O2)O[C@H](C)[C@@H]1C` [Compound 41, 13-O-methyl pederin]: the GI50 in assay [1] (setting [5]) was found to be 0.084 ± 0.01 nM. For the same compound, the “activity … compared with HCT116” value in assay [2] is reported as “essentially identical activity”.

`COC[C@H](C[C@H]1O[C@H]([C@H](C)NC(=O)[C@@H](O)[C@@]2(OC)CC[C@@H](C)[C@@H](C)O2)C[C@@H](OC)C1(C)C)OC` [Compound 51, 4-desmethylene-10-(S)-methyl 13-O-methylpederin] had a GI50 in assay [1] (setting [6]) of 42 ± 5 nM.

In assay [1] (setting [6]), `COC[C@H](C[C@H]1O[C@H]([C@@H](C)NC(=O)[C@@H](O)[C@@]2(OC)CC[C@@H](C)[C@@H](C)O2)C[C@@H](OC)C1(C)C)OC` [Compound 52, 4-desmethylene-10-(R)-methyl 13-O-methylpederin] returned a GI50 above 9000 nM.

As for C4-desmethylene pederin [Compound 40], growth in assay [1] (setting [5]) was halved (GI50) at 6.5 ± 0.8 nM. The “activity … compared with HCT116” value in assay [2] was “essentially identical activity”.

In turn, pedestatin [Compound 46] came in with a GI50 in assay [1] (setting [5]) of 0.046 ± 0.03 nM.
